Tests used:
[1] = tested on: HCT116 cells and MKN45 cells; assay: Test C: Measurement of the cell proliferation via a 14C-thymidine pulse; format: cell-based; conditions: 14C-thymidine incorporation, 96 hours of treatment; cell line (HCT116 or MKN45) not stated
Experimental: C) Test C: Measurement of the Cell Proliferation Via a 14C-Thymidine Pulse
The cells are inoculated in Cytostar 96-well plates in 180 μl for 4 hours at 37° C. and 5% CO2: HCT116 cells at a rate of 2500 cells per well in DMEM medium+10% foetal calf serum+1% L-Glutamine and MKN45 cells at a rate of 7500 cells per well in RPMI medium+10% foetal calf serum+1% L-Glutamine. After these 4 hours of incubation, the products are added in 10 μl as a 20-fold concentrated solution according to the dilution method cited for ELISA. The products are tested at 10 concentrations in duplicate from 10 000 nM to 0.3 nM with an increment of 3.
After 72 hours of treatment, add 10 μl of 14C-thymidine at 10 μCi/ml to obtain 0.1 μCi per well. The incorporation of 14C-thymidine is measured on a Micro-Beta machine (Perkin-Elmer) after 24 hours of pulse and 96 hours of treatment.
All the test steps are automated on BIOMEK 2000 or TECAN stations.

MET [2] = target: T1, MET (Homo sapiens, UniProt P08581); assay: Test B: Inhibition of autophosphorylation of MET; ELISA technique (pppY1230,1234,1235) in MKN45 cells; format: cell-based; set-up: Inoculated MKN45 cells in 96-well plates; endogenous in cells; host or cells: MKN45 cells; conditions: 1 hour treatment, phosphoMET ELISA
Experimental: B) Test B: Inhibition of autophosphorylation of MET; ELISA technique (pppY1230,1234,1235)
a) Cell lysates: Inoculated MKN45 cells in 96-well plates (Cell coat BD polylysine) to a rate of 20 000 cells/well in 200 μl in RPMI medium+10% FCS+1% L-glutamine. Leave to adhere for 24 hours in an incubator.
The cells are treated the day after inoculation with the products at six concentrations in duplicate for 1 hour. At least three control wells are treated with the same amount of final DMSO.
Product dilution: Stock at 10 mM in pure DMSO—range from 10 mM to 30 μM with an increment of 3 in pure DMSO—Intermediate 50-fold dilutions in the culture medium, followed by removal of 10 μl added directly to the cells (200 μl): final range from 10 000 to 30 nM.
At the end of incubation, delicately remove the supernatant and rinse with 200 μl of PBS. Next, place 100 μl of lysis buffer directly in the wells on ice and incubate at 4° C. for 30 minutes. Lysis buffer: 10 mM Tris-HCl pH 7.4, 100 mM NaCl, 1 mM EDTA, 1 mM EGTA, 1% Triton X-100, 10% glycerol, 0.1% SDS, 0.5% deoxycholate, 20 mM NaF, 2 mM Na3VO4, 1 mM PMSF and anti-protease cocktail.
The 100 μl of lysates are transferred into a V-bottomed polypropylene plate and ELISA is performed directly or the plate is frozen at −80° C.,
b) ELISA PhosphoMET SicSource Kit KH00281
Add 70 μl of kit dilution buffer+30 μL of cell lysates or 30 μl of lysis buffer for the blanks to each well of the kit plate. Incubate for 2 hours with gentle rocking at room temperature.
Rinse the wells four times with 400 μl of kit washing buffer. Incubate with 100 μl of anti-phospho MET antibody for 1 hour at room temperature.
Rinse the wells four times with 400 μL of kit washing buffer. Incubate with 100 μl of anti-rabbit HRP antibody for 30 minutes at room temperature (except for the wells with chromogen alone).
Rinse the wells four times with 400 μl of kit washing buffer. Introduce 100 μl of chromogen and incubate for 30 minutes in the dark at room temperature.
Stop the reaction with 100 μl of stop solution. Take the reading without delay, at […] 0.1 second on a Wallac Victor plate reader.
Target sequence in this assay (P08581 25-1390): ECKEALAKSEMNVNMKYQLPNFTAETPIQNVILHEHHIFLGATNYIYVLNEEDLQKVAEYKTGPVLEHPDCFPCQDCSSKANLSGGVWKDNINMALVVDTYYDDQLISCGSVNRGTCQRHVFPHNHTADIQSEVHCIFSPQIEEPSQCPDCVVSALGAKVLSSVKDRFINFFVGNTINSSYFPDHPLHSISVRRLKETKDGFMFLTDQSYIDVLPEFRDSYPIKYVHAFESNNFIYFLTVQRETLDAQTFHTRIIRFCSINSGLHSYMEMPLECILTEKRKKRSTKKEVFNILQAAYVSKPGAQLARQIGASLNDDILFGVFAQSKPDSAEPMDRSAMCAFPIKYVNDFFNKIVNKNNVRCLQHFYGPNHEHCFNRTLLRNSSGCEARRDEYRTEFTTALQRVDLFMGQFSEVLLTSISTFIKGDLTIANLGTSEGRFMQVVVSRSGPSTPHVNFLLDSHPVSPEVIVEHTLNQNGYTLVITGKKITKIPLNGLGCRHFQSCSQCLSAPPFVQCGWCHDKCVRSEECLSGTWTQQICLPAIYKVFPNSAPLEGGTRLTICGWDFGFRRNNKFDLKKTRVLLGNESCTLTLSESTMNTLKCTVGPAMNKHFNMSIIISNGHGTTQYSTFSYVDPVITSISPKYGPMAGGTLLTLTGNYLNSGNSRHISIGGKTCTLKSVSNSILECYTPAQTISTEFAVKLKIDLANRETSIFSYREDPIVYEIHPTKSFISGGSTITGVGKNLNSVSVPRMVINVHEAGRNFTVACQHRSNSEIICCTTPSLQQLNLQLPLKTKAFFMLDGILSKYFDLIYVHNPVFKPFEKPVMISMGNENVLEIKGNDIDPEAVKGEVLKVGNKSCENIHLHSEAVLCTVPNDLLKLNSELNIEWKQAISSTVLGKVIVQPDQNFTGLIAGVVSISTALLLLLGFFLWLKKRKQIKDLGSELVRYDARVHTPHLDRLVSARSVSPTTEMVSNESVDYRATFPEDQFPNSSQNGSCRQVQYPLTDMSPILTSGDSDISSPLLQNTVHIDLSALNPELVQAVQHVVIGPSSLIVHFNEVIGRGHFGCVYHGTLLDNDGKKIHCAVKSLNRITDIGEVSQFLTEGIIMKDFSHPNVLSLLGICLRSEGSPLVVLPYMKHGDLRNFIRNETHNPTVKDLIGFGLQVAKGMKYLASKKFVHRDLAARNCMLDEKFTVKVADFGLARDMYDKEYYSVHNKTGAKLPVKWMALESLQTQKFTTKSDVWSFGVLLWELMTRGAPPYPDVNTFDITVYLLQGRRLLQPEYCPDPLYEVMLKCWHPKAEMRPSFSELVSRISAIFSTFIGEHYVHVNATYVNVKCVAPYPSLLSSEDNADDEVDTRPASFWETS

MET [3] = target: T1, MET; assay: Test A: HTRF MET test in 96-well format; format: biochemical; set-up: The recombinant DNA His-Tev-MET (956-1390) in pFastBac; His (N, cleaved yes); TEV cleavage site (N); made in house; host or cells: SF21 insect cells (baculovirus, pFastBac); conditions: ATP 10 μM, MET 5 nM
Experimental: The recombinant DNA His-Tev-MET (956-1390) in pFastBac (invitrogen) is transfected into insect cells and, after several viral amplification steps, the final baculovirus stock is tested for expression of the protein of interest.
For the production of autophosphorylated protein, the preceding fractions are incubated for 1 hour at room temperature after addition of ATP 2 mM, MgCl2 2 mM, and Na3VO4 4 mM. After stopping the reaction with 5 mM of EDTA, the reaction mixture is injected onto a HiPrep desalting column (GE HealthCare) pre-equilibrated with buffer A+Na3VO4 4 mM, and the fractions containing the protein of interest (SDS PAGE analysis) are pooled and stored at −80° C. The degree of phosphorylation is checked by mass spectrometry (LC-MS) and by peptide mapping.
A) Test A: HTRF MET test in 96-well format
In a final volume of 50 μl of enzymatic reaction, MET 5 nM final is incubated in the presence of the test molecule (for a final concentration range of 0.17 nM to 10 μM, DMSO 3% final) in MOPS 10 mM pH 7.4, DTT 1 mM, 0.01% Tween 20 buffer. The reaction is initiated with the substrate solution to obtain final concentrations of poly-(GAT) 1 μg/ml, ATP 10 μM and MgCl2 5 mM. After incubation for 10 minutes at room temperature, the reaction is stopped with a mix of 30 μl to obtain a final solution of Hepes 50 mM pH 7.5, potassium fluoride 500 mM, 0.1% BSA and EDTA 133 mM in the presence of 80 ng of streptavidin 61SAXLB Cis-Bio Int. and 18 ng of anti-phosphotyrosine Mab PT66-Europium Cryptate per well. After incubation for 2 hours at room temperature, the reading is taken at two wavelengths, 620 nm and 665 nm, on a reader for the TRACE/HTRF technique and the percentage of inhibition is calculated from the 665/620 ratios.
Target sequence in this assay (P08581 956-1390): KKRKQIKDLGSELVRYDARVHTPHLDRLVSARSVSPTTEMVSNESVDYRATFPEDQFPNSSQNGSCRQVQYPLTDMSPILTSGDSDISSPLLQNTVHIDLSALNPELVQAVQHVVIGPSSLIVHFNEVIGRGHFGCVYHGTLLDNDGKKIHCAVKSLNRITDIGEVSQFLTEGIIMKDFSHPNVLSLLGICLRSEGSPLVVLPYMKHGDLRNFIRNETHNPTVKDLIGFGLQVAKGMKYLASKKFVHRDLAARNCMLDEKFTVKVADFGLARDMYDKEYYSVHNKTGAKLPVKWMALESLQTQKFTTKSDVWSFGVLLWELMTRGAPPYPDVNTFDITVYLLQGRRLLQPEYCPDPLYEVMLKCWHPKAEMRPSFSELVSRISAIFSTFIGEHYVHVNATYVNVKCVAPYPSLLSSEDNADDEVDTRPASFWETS

Structure (SMILES)	IC50 [1] [nM]	IC50 (MET [2]) [nM]	IC50 (MET [3]) [nM]
CCN1CCN(CC(=O)Nc2nc3cc(F)c(Sc4nnc5ccc(OC6CCC6)nn45)cc3s2)CC1 [Example 10, N-(6-{[6-(Cyclobutyloxy)[1,2,4]triazolo[4,3-b]pyridazin-3-yl]sulfanyl}-5-fluoro-1,3-benzothiazol-2-yl)-2-(4-ethylpiperazin-1-yl)acetamide]	< 1000	< 100	< 100
O=C(NCCN1CCOCC1)Nc1nc2cc(F)c(Sc3nnc4ccc(NC5CC5)nn34)cc2s1 [Example 5, 1-(6-{[6-(cyclopropylamino)[1,2,4]triazolo[4,3-b]pyridazin-3-yl]sulfanyl}-5-fluoro-1,3-benzothiazol-2-yl)-3-[2-(morpholin-4-yl)ethyl]urea]	< 1000	< 100	< 100
O=C(NCCN1CCOCC1)Nc1nc2cc(F)c(Sc3nnc4ccc(OC5CCCCC5)nn34)cc2s1 [Example 1, 1-(6-{[6-(Cyclohexyloxy)[1,2,4]triazolo[4,3-b]pyridazin-3-yl]sulfanyl}-5-fluoro-1,3-benzothiazol-2-yl)-3-[2-(morpholin-4-yl)ethyl]urea]	< 1000	< 100	< 100
Nc1nc2cc(F)c(Sc3nnc4ccc(-c5ccc(F)cc5)nn34)cc2s1 [Example 3, 5-fluoro-6-{[6-(4-fluorophenyl)[1,2,4]triazolo[4,3-b]pyridazin-3-yl]sulfanyl}-1,3-benzothiazol-2-amine]	< 1000	< 100	< 100
O=C(NCCN1CCOCC1)Nc1nc2cc(F)c(Sc3nnc4ccc(NC5CCCCC5)nn34)cc2s1 [Example 6, 1-(6-{[6-(cyclohexylamino)[1,2,4]triazolo[4,3-b]pyridazin-3-yl]sulfanyl}-5-fluoro-1,3-benzothiazol-2-yl)-3-[2-(morpholin-4-yl)ethyl]urea]	< 1000	< 100	< 100
CCOc1ccc2nnc(Sc3cc4sc(NC(=O)CN5CCN(C6CC6)CC5)nc4cc3F)n2n1 [Example 7, 2-(4-cyclopropylpiperazin-1-yl)-N-{6-[(6-ethoxy[1,2,4]triazolo[4,3-b]pyridazin-3-yl)sulfanyl]-5-fluoro-1,3-benzothiazol-2-yl}acetamide]	< 1000	< 100	< 100
CCOc1ccc2nnc(Sc3cc4sc(NC(=O)CN5CCN(CC)CC5)nc4cc3F)n2n1 [Example 9, N-{6-[(6-ethoxy[1,2,4]triazolo[4,3-b]pyridazin-3-yl)sulfanyl]-5-fluoro-1,3-benzothiazol-2-yl}-2-(4-ethylpiperazin-1-yl)acetamide]	< 1000	< 100	< 100
CC(C)(C)OC(=O)Nc1nc2cc(F)c(Sc3nnc4ccc(-c5ccc(F)cc5)nn34)cc2s1 [Example 2, 2-Methylpropan-2-yl (5-fluoro-6-{[6-(4-fluorophenyl)[1,2,4]triazolo[4,3-b]pyridazin-3-yl]sulfanyl}-1,3-benzothiazol-2-yl)carbamate]	< 1000	< 100	< 100
O=C(CN1CCN(C2CC2)CC1)Nc1nc2cc(F)c(Sc3nnc4ccc(OC5CCC5)nn34)cc2s1 [Example 8, N-(6-{[6-(cyclobutyloxy)[1,2,4]triazolo[4,3-b]pyridazin-3-yl]sulfanyl}-5-fluoro-1,3-benzothiazol-2-yl)-2-(4-cyclopropylpiperazin-1-yl)acetamide]	< 1000	< 100	< 100
O=C(NCCN1CCOCC1)Nc1nc2cc(F)c(Sc3nnc4ccc(-c5ccc(F)cc5)nn34)cc2s1 [Example 4, 1-(5-fluoro-6-{[6-(4-fluorophenyl)[1,2,4]triazolo[4,3-b]pyridazin-3-yl]sulfanyl}-1,3-benzothiazol-2-yl)-3-[2-(morpholin-4-yl)ethyl]urea]	< 1000	< 100	< 100
O=C(CN1CCN(C2CC2)CC1)Nc1nc2cc(F)c(Sc3nnc4ccc(OC5COC5)nn34)cc2s1 [Example 11, 2-(4-cyclopropylpiperazin-1-yl)-N-(5-fluoro-6-{[6-(oxetan-3-yl-oxy)[1,2,4]triazolo[4,3-b]pyridazin-3-yl]sulfanyl}-1,3-benzothiazol-2-yl)acetamide]		< 500	< 500
